Experimental data from US11179348B2, “Combination comprising pterostilbene for the treatment of cancer” (FUNDACIÓN UNIVERSIDAD CATÓLICA DE VALENCIA SAN VICENTE …, priority 2015, dated 2021).

Tested on: AsPC-1 cells isolated from tumor-bearing mice
Experiment: Chemosensitization of cultured AsPC-1 cells isolated from xenografts
Format: cell-based, human
Details: 72 h-cultured, PL 1 μM, Chemo 0.125 μM PAC.PBP and 25 μM GTB, Pter = in vivo pretreatment
Experimental: FIGS. 18-25. Effect of piperlongumine and I-BET762, as GSH depleting and chemosensitizing agents, in in vitro growing human melanoma, pancreatic, breast, lung, liver, prostate, ovarian, and colorectal cancer cells. Cancer cells, isolated from Pter-treated tumor-bearing mice, were cultured as indicated under Methods. Chemotherapy (0.25 μM PAC.PBP in A2058 melanoma and MDA-MB-231 breast carcinoma cells; 0.125 μM PAC.PBP and 25 μM GTB in AsPC-1 pancreatic cancer cells; 1 μM VRB and 15 μM cisPt in A459 lung carcinoma cells; 0.15 μM DXR in HepG2 hepatocellular carcinoma cells; 15 nM DCT in PC-3 prostate carcinoma cells; 0.15 μM PAC.PBP and 25 μM CarboPt in SK-OV-3 ovarian carcinoma cells; 3 μM 5-FU, 1 μM FA and 0.6 μM IRI in HT-29 colorectal carcinoma cells) was added to the cultured flasks 24 h after seeding. […]
Human A2058, MeWo and MelJuso melanoma cells, and mouse AtT-20 pituitary corticotroph tumor cells were from the American Type Culture Collection (ATCC). […] Cell numbers were determined using a Coulter Counter (Coulter Electronic Inc., Miami, Fla.). […] Cellular viability was assessed as previously reported (Mena, S. et al. Clin Cancer Res 13, 2658-2666 (2007)), by measuring trypan blue exclusion and leakage of lactate dehydrogenase activity. […]

For COc1cc(/C=C/c2ccc(O)cc2)cc(OC)c1 [Pter, trans-3,5-dimethoxy-4′-hydroxystilbene], the Viable cells was 1249 ± 206 ×10^6.
